As usually defined, the EC50 is the concentration needed to bring the measured effect to its halfway point.

The experiment can be described thus: ET-1 Assay: Fibroblasts (primary human lung and dermal, HFL-1, 3T3 etc) are seeded in 96-well plates at ~15000 cells/well and serum starved for 0-48 hours. After media exchange, compounds serially diluted in DMSO are added to the cells. After a brief incubation of ~30 min, stimulants (TGFb, serum, LPA etc) are added followed by further incubation for 16-48 hours. Media is then harvested and stored frozen in plate format for later endothelin-1 (ET-1) determination by ELISA. Toxicity measurements are made using the ATPlite kit (Perkin-Elmer). ET-1 is quantified using an ELISA kit (R&D Systems). The amount of ET-1 produced in the assay wells are back-calculated using the ELISA standard. The ability of a compound to inhibit ET-1 production is typically analyzed by fitting dose-response curves to a 4-parameter logistic function to obtain an EC50 value. The conditions noted are these: HFL1.
As for `O=c1cc(NCc2ccccn2)ccn1-c1ccc(OC(F)(F)F)cc1`, the EC50 is < 50 µM.

Turning to `Cc1cc(=O)n(-c2ccc(Cl)cc2)cc1-c1cn[nH]c1`, the 50% effective concentration (EC50) is > 200 µM. As for `CCn1ccc2c(-c3ccc(F)cc3)cn(-c3ccc(OC(F)(F)F)cc3)c(=O)c21`, the figure is < 50 µM.

As to `Cc1cc(=O)n(-c2ccc(OC(F)(F)F)cc2)cc1-c1ccc2c(c1)OCC(=O)N2`, the 50% effective concentration (EC50) result is “in the range around 125 µM”. As for `O=c1c2cccnc2c(-c2cn[nH]c2)cn1-c1ccc(OC(F)(F)F)cc1`, the EC50 is > 200 µM. The value for `Cn1cc(-c2cn(-c3ccc(OC(F)(F)F)cc3)c(=O)cc2NCc2ccc(Cl)cc2Cl)cn1` was < 50 µM. On to `Cc1cc(=O)n(-c2ccc(Cl)cc2)cc1-c1ccc2scnc2c1`, for which the EC50 entry is “in the range around 125 µM”.

As to `Cc1cc(=O)n(-c2ccc(OC(F)(F)F)cc2)cc1-c1ccc2c(c1)OCC(=O)N2C`, the EC50 was < 50 µM. The value for `CCOc1ccc(CNc2cc(=O)n(-c3ccc(OC(F)(F)F)cc3)cc2-c2cnn(C)c2)c(F)c1` was < 50 µM; that for `Cc1cc(=O)n(-c2ccc(OC(F)(F)F)cc2)cc1-c1cccc2c1OCC(=O)N2` was > 200 µM. On to `Cc1cc(=O)n(-c2ccc(Cl)cc2)cc1-c1ccc2ocnc2c1`, for which the concentration for a half-maximal effect (EC50) was > 200 µM. On to `O=c1c2[nH]ccc2c(-c2ccc(F)cc2)cn1-c1ccc(OC(F)(F)F)cc1`, for which the EC50 is < 50 µM. As for `CCOc1ccc(-n2cc(-c3ccc4ocnc4c3)c(C)cc2=O)c(C)c1`, the entry is “in the range around 125 µM”.

Consider `Cn1cc(-c2cn(-c3ccc(Cl)cc3)c(=O)cc2Oc2ccccc2)cn1`, for which the concentration giving a half-maximal response (EC50) is < 50 µM. With `Cc1cc(=O)n(-c2ccc(Cl)cc2)cc1-c1ccnnc1`, the concentration giving a half-maximal response (EC50) was > 200 µM. `CCOc1ccc(-n2cc(-c3cnn(C)c3)c(OCCOC)cc2=O)c(C)c1`: the concentration for a half-maximal effect (EC50) was < 50 µM. As for `Cn1cc(C2=CN(c3ccc(OC(F)(F)F)cc3)CC=C2Oc2ccc(C(N)=O)cc2)cn1`, the figure is < 50 µM; as for `Cn1cc(-c2cn(-c3ccc(OC(F)(F)F)cc3)c(=O)cc2Oc2ccc(Cl)cc2)cn1`, > 200 µM. With `Cc1nc2c(-c3cn[nH]c3)cn(-c3ccc(OC(F)(F)F)cc3)c(=O)c2s1`, the half-maximal effective concentration (EC50) is < 50 µM. Regarding `CCOc1ccc(-n2cc(-c3cnn(C)c3)c(NCc3ccccc3)cc2=O)c(C)c1`, the EC50 was < 50 µM. `O=c1c2nccnc2c(-c2cnn(CCO)c2)cn1-c1ccc(OC(F)(F)F)cc1`: the concentration for a half-maximal effect (EC50) entry is “in the range around 125 µM”.

With `Cc1cc(=O)n(-c2ccc(OC(F)(F)F)cc2)cc1-c1cccc2[nH]c(=O)oc12`, the EC50 was > 200 µM. On to `O=c1cc(NCc2ncccn2)ccn1-c1ccc(OC(F)(F)F)cc1`, for which the half-maximal effective concentration (EC50) was > 200 µM. Take `CC(=O)Nc1cccc(-n2cc(-c3ccc(F)cc3)c(Oc3ccccc3)cc2=O)c1`: the half-maximal effective concentration (EC50) was < 50 µM. In the case of `Cn1cc(-c2cn(-c3ccc(OC(F)(F)F)cc3)c(=O)cc2NCc2ncccn2)cn1`, the EC50 was > 200 µM. `Cc1nc2c(-c3cnn(Cc4ccccc4)c3)cn(-c3ccc(OC(F)(F)F)cc3)c(=O)c2s1`: the EC50 was < 50 µM. On to `Cn1cc(-c2cn(-c3ccc(F)cc3)c(=O)cc2Oc2ccccc2)cn1`, for which the EC50 is < 50 µM. For `CCOc1ccc(CNc2cc(=O)n(-c3ccc(OC(F)(F)F)cc3)cc2-c2cnn(C)c2)cc1`, the concentration for a half-maximal effect (EC50) was < 50 µM. With `CCOc1ccc(-n2cc(-c3ccc(F)cc3)c(Cl)cc2=O)c(C)c1`, the half-maximal effective concentration (EC50) is > 200 µM.

For the molecule `Cc1cc(=O)n(-c2ccc(OC(F)(F)F)cc2)cc1-c1ccc2[nH]c(=O)oc2c1`, the EC50 was > 200 µM. As to `Cc1cc(=O)n(-c2ccc(OC(F)(F)F)cc2C)cc1-c1cnn(C)c1`, the EC50 was > 200 µM. The value for `Cc1nc2ccn(-c3ccc(OC(F)(F)F)cc3)c(=O)c2s1` was > 200 µM; that for `Cc1cc(=O)n(-c2ccccc2NC(N)=O)cc1-c1ccc(F)cc1` was < 50 µM. The value for `Cn1cc(-c2cn(-c3ccc(OC(F)(F)F)cc3)c(=O)cc2NCc2cnccn2)cn1` was “in the range around 125 µM”. For `Cc1nc2c(=O)n(-c3ccc(OC(F)(F)F)cc3)cc(-c3cnn(C)c3)c2o1`, the EC50 is < 50 µM. On to `Cc1cc(=O)n(-c2ccc(OC(F)(F)F)cc2)cc1-c1cccc2c1NC(=O)CO2`, for which the EC50 is > 200 µM. Take `Cn1cc(-c2cn(-c3ccc(OC(F)(F)F)cc3)c(=O)cc2Oc2ccccc2Cl)cn1`: the EC50 is < 50 µM. For `O=c1c2nccnc2ccn1-c1ccc(OC(F)(F)F)cc1`, the EC50 was < 50 µM. The value for `COCCOc1ccc(-n2cc(-c3cnn(C)c3)c(Oc3ccccc3)cc2=O)cc1` was < 50 µM; that for `CCn1ccc2c(-c3ccc(F)cc3)c[nH]c(=O)c21` was < 50 µM; that for `Cc1cc(=O)n(-c2ccc(OC(F)(F)F)cc2)cc1-c1ccc2c(c1)oc(=O)n2CCO` was “in the range around 125 µM”. As for `Cc1cc(=O)n(-c2ccc(OC(F)(F)F)cc2)cc1-c1cccc2c1N(C)C(=O)CO2`, the figure is > 200 µM; as for `CCOC(=O)Nc1cccc(-n2cc(-c3ccc(F)cc3)c(C)cc2=O)c1`, < 50 µM. As to `Cn1cc(-c2cn(-c3ccc(OC(F)(F)F)cc3)c(=O)c3scnc23)cn1`, the EC50 is < 50 µM. The value for `Cn1cc(-c2cn(-c3ccc(OC(F)(F)F)cc3)c(=O)c3[nH]ncc23)cn1` was > 200 µM. As to `Cc1ccc(F)c(-c2ccccc2)c1`, the EC50 is > 200 µM. For `Cc1nc2c(=O)n(-c3ccc(OC(F)(F)F)cc3)ccc2o1`, the half-maximal effective concentration (EC50) was > 200 µM. With `CCn1c(=O)oc2cc(-c3cn(-c4ccc(OC(F)(F)F)cc4)c(=O)cc3C)ccc21`, the EC50 was < 50 µM. The value for `Cc1cc(=O)n(-c2ccc(OC(F)(F)F)cc2)cc1-c1ccc2oc(=O)[nH]c2c1` was < 50 µM; that for `Cn1cc(-c2cn(-c3ccc(OC(F)(F)F)cc3)c(=O)cc2NCc2ccc(C#N)cc2)cn1` was > 200 µM. Turning to `Cn1cc(-c2cn(-c3ccc(OC(F)(F)F)cc3)c(=O)c3c2ccn3Cc2ccccc2)cn1`, the concentration giving a half-maximal response (EC50) was < 50 µM. As for `Cn1cc(-c2c[nH]c(=O)cc2NCc2ccccn2)cn1`, the entry is “in the range around 125 µM”; as for `Cc1cc(=O)n(-c2ccc(OC(F)(F)F)cc2)cc1-c1ccc2c(c1)OCC(=O)N2CCO`, > 200 µM; as for `O=c1c2scnc2c(-c2cn[nH]c2)cn1-c1ccc(OC(F)(F)F)cc1`, < 50 µM.

On to `Cn1cc(-c2cn(-c3ccc(O)cc3)c(=O)cc2Oc2ccccc2)cn1`, for which the EC50 is > 200 µM.

Regarding `CCOc1ccc(-n2cc(-c3cn[nH]c3)c3nccnc3c2=O)c(C)c1`, the EC50 is < 50 µM. As for `Cc1nc2c(=O)n(-c3ccc(OC(F)(F)F)cc3)cc(-c3ccc(F)cc3)c2o1`, the figure is > 200 µM; as for `CCn1c(=O)oc2c(-c3cn(-c4ccc(OC(F)(F)F)cc4)c(=O)cc3C)cccc21`, > 200 µM. Consider `Cn1cc(-c2cn(-c3ccc(OC(F)(F)F)cc3)c(=O)cc2Oc2ccccc2F)cn1`, for which the concentration for a half-maximal effect (EC50) is > 200 µM. `Cn1cc(-c2cn(-c3ccc(Cl)cc3)c(=O)c3cccnc23)cn1`: the EC50 was > 200 µM. The value for `COCCOc1ccc(Oc2cc(=O)n(-c3ccc(OC(F)(F)F)cc3)cc2-c2cnn(C)c2)cc1` was “in the range around 125 µM”. With `Cc1cc(=O)n(-c2ccc(OC(F)(F)F)cc2)cc1-c1cccc2c1OC(F)(F)O2`, the EC50 was < 50 µM. `N#Cc1ccc(-n2cc(-c3cn[nH]c3)c3ncccc3c2=O)cc1`: the EC50 is > 200 µM. Turning to `Cc1nc2c(-c3cnn(C)c3)cn(-c3ccc(OC(F)(F)F)cc3)c(=O)c2s1`, the EC50 was < 50 µM. Take `CCn1c(=O)oc2ccc(-c3cn(-c4ccc(OC(F)(F)F)cc4)c(=O)cc3C)cc21`: the EC50 is > 200 µM. The value for `Cn1cc(-c2cn(-c3ccc(OC(F)(F)F)cc3)c(=O)cc2NCc2ccc(F)cc2)cn1` was < 50 µM; that for `N#Cc1ccc(-n2cc(-c3cn[nH]c3)c3nccnc3c2=O)cc1` was > 200 µM; that for `Cc1cc(=O)[nH]cc1-c1ccc2c(c1)OCC(=O)N2C` was < 50 µM.

`Cn1cc(-c2c[nH]c(=O)cc2NCc2ncccn2)cn1`: the EC50 was < 50 µM.

Regarding `Cn1cc(-c2cn(-c3ccc(OC(F)(F)F)cc3)c(=O)cc2NCc2cncnc2)cn1`, the half-maximal effective concentration (EC50) is < 50 µM. For `Cc1cc(=O)n(-c2ccc(NC(N)=O)cc2)cc1-c1ccc(F)cc1`, the EC50 entry is “in the range around 125 µM”. Regarding `Cc1cc(=O)n(-c2cccc(NC(=O)N(C)C)c2)cc1-c1ccc(F)cc1`, the EC50 was < 50 µM. As for `Cn1cc(-c2cn(-c3ccc(OC(F)(F)F)cc3)c(=O)cc2Oc2ccc(F)cc2)cn1`, the figure is < 50 µM. With `Cn1cc(-c2cn(-c3ccc(OC(F)(F)F)cc3)c(=O)cc2Oc2cccc(Cl)c2)cn1`, the half-maximal effective concentration (EC50) is < 50 µM. With `CCOc1ccc(-n2cc(-c3cn[nH]c3)c3ncccc3c2=O)c(C)c1`, the concentration for a half-maximal effect (EC50) was < 50 µM. `Cn1cc(-c2cn(-c3ccc(OC(F)(F)F)cc3)c(=O)cc2Oc2cccc(F)c2)cn1`: the EC50 is < 50 µM. For `Cn1cc(-c2cn(-c3ccc(OC(F)(F)F)cc3)c(=O)cc2NCc2ccc(Cl)cc2)cn1`, the EC50 entry is “in the range around 125 µM”. As to `Cc1cc(=O)[nH]cc1-c1cccc2c1OC(F)(F)O2`, the 50% effective concentration (EC50) is < 50 µM. `Cn1cc(-c2cn(-c3cccc(NC(N)=O)c3)c(=O)cc2Oc2ccccc2)cn1`: the EC50 was < 50 µM.

As for `CNC(=O)Nc1cccc(-n2cc(-c3ccc(F)cc3)c(C)cc2=O)c1`, the EC50 result was “in the range around 125 µM”. Turning to `CCn1c(=O)oc2ccc(-c3c[nH]c(=O)cc3C)cc21`, the half-maximal effective concentration (EC50) is < 50 µM.

Regarding `CCn1ccc2c(-c3cn[nH]c3)cn(-c3ccc(OC(F)(F)F)cc3)c(=O)c21`, the EC50 is < 50 µM. On to `CCOc1ccc(-n2cc(-c3ccc4scnc4c3)c(C)cc2=O)c(C)c1`, for which the EC50 was > 200 µM.

For the molecule `CCOc1ccc(-n2cc(-c3ccc(F)cc3)ccc2=O)c(C)c1`, the EC50 is > 200 µM. As to `Cc1cc(=O)n(-c2ccc(F)c(NC(N)=O)c2)cc1-c1ccc(F)cc1`, the half-maximal effective concentration (EC50) is < 50 µM. Consider `Cn1cc(-c2cn(-c3ccc(OC(F)(F)F)cc3)c(=O)cc2NCc2ccc(C#N)cc2F)cn1`, for which the EC50 was < 50 µM. As for `Cc1ccccc1-n1cc(-c2cnn(C)c2)ccc1=O`, the figure is > 200 µM.

Values taken from ChEMBL document CHEMBL5725356, “Anti-fibrotic pyridinones” (2017).
